Here are results for 124 compounds from a melting point compilation (Tetko et al.).

With `CS(=O)(=O)c1ccc(-c2nc(CCl)co2)cc1`, the melting point (usually the temperature, or range, at which the solid turns liquid) is 129 to 131 °C.

The compound `O=C(O)CCNS(=O)(=O)c1ccc2c(c1)OCCCO2` gave a melting point of 200 to 205 °C.

Take `c1ccc2c(c1)NCCCS2`: the melting point fell in the range of 22 to 24 °C.

In turn, `O=C(O)CCCCc1ccc(O)c(O)c1` had a melting point of 93 to 95 °C.

In the case of `C/C(=C\C(=O)O)C12CC3CC(CC(C3)C1)C2`, the melting point lay within 169 to 171 °C.

Consider `N#CC(N)c1ccc2ccccc2c1` (centres undefined), for which the melting point was in the range of 116 to 118 °C.

Compound `CCOC(=O)c1oc2ccc(Br)cc2c1CBr` registered a melting point of 132 to 134 °C.

Regarding `Nc1ccn(CC(F)(F)F)n1`, the melting point was in the range of 39 to 41 °C.

Turning to `NCC(O)c1ccc(F)c(F)c1` (centres undefined), the melting point was 53 to 55 °C.

For the compound `O=C(O)c1cc(O)nc2ccc(S(=O)(=O)N3CCOCC3)cc12`, the melting point was 304 to 306 °C.

`Nc1cnccc1O` came in with a melting point of 156 to 158 °C.

The compound `Cc1ccc(C(C)C)cc1OC(C)C(=O)O` (centres undefined) yielded a melting point of 80 to 82 °C.

On to `Cc1ccn2c(=O)c(C(=O)O)cnc2c1`, for which the melting point is 241 to 243 °C.

Regarding `CC(C)(C)c1nnn[nH]1`, the melting point fell in the range of 203 to 205 °C.

`O=S(=O)(Cl)CCc1ccccc1` displayed a melting point of 30 to 32 °C.

`Cc1cc(NC(=O)CCl)n(-c2ccc(F)cc2)n1` had a melting point of 128 to 130 °C.

Compound `COc1ccc(C=O)cc1OC(F)F` had a melting point of 34 to 38 °C.

Turning to `O=c1oc2ccccc2c(O)c1Cc1c(O)c2ccccc2oc1=O`, the melting point lay within 290 to 292 °C.

Turning to `NNc1ncnc2cc(-c3ccc(F)cc3)sc12`, the melting point fell in the range of 237 to 239 °C.

The compound `Cc1nc2cc(N)ccc2o1` had a melting point of 72 to 74 °C.

`CCOC(C)c1nc(CC(=O)O)cs1` (centres undefined) had a melting point of 91 to 93 °C.

`OCc1nnc(-c2ccccc2)o1` returned a melting point of 129 to 131 °C.

`Cc1nnc(CO)n1C1CC1` came in with a melting point of 114 to 116 °C.

`CS(=O)(=O)CCCC(=O)O` came in with a melting point of 78 to 80 °C.

As to `O=C(O)CCCCN1CCOCC1`, the melting point was in the range of 99 to 101 °C.

Take `CC(C)(C)OC(=O)N(CC(=O)O)c1ccccc1`: the melting point fell in the range of 84 to 86 °C.

Take `CCOC(=O)c1ccc(-n2ccnc2)c(N)c1`: the melting point fell in the range of 89 to 93 °C.

In the case of `CC(=O)N(c1ccc(C)cc1)c1nc(C=O)cs1`, the melting point is 166 to 168 °C.

`NCC(O)c1ccco1` (centres undefined): the melting point lay in the range of 80 to 82 °C.

`O=Cc1ccc(OCc2ccccn2)cc1` gave a melting point of 88 to 90 °C.

The compound `CN1CCN(c2ccc(C(F)(F)F)cc2N)CC1` showed a melting point of 178 to 180 °C.

`Cc1ccccc1Cc1cnc(N)s1` gave a melting point of 102 to 104 °C.

With `CC(C)(C)n1ncc(Cl)c(Cl)c1=O`, the melting point fell in the range of 64 to 66 °C.

In turn, `CCCOc1ccc(C(N)=S)cc1` returned a melting point of 142 to 144 °C.

Consider `CC1CC(N)=NN1Cc1ccccc1` (centres undefined), for which the melting point was 159 to 161 °C.

On to `COc1cccc(C(N)C(=O)O)c1` (centres undefined), for which the melting point fell in the range of 198 to 200 °C.

In turn, `NNC(=S)Nc1cccnc1` displayed a melting point of 174 to 176 °C.

The compound `O=C(NO)c1ccccc1Br` yielded a melting point of 182 to 184 °C.

In turn, `O=C1COc2c(Br)cc(Cl)cc21` had a melting point of 139 to 141 °C.

For the compound `O=C(O)CCc1nc(-c2ncccn2)no1`, the melting point lay in the range of 202 to 204 °C.

`NC(=O)C(N)c1cccc(Br)c1` (centres undefined) had a melting point of 107 to 109 °C.

In the case of `Nc1c(F)cccc1Oc1ccccc1`, the melting point is 51 to 53 °C.

`COCc1ccc(C(=O)O)cc1` yielded a melting point of 88 to 92 °C.

Consider `CC(=O)c1ccccc1NC(=O)CCCCl`, for which the melting point lay in the range of 55 to 57 °C.

In the case of `Cc1ccc2sc(C3CCNCC3)nc2c1`, the melting point was 111 to 113 °C.

`COc1cc(C=O)cc(Br)c1OCC(=O)N(C)C` came in with a melting point of 62 to 64 °C.

In the case of `CCn1c(NN)nc2ccccc2c1=O`, the melting point is 159 to 161 °C.

The compound `Nc1cc(F)c(F)cc1N` showed a melting point of 126 to 130 °C.

As for `COc1cc(CCl)ccc1S(C)(=O)=O`, the melting point was 106 to 108 °C.

With `O=C(O)c1sccc1S(=O)(=O)N1CCSCC1`, the melting point was in the range of 144 to 146 °C.

`C/C(=N\NC(N)=S)c1ccccc1` yielded a melting point of 114 to 116 °C.

Compound `CCOC(=O)c1cnn(-c2ncccn2)c1N` returned a melting point of 181 to 183 °C.

As for `NC(=O)c1cc(N)cc(C(N)=O)c1`, the melting point was in the range of 246 to 248 °C.

In turn, `CCOc1cccc(S(N)(=O)=O)c1` registered a melting point of 129 to 131 °C.

As to `Nc1ncc(Cc2cc(Cl)ccc2Cl)s1`, the melting point is 110 to 114 °C.

For `CN(CCS(=O)(=O)F)S(=O)(=O)c1ccc(F)cc1`, the melting point lay in the range of 129 to 131 °C.

For `NC(=O)c1c[nH]nn1`, the melting point lay within 256 to 258 °C.

In turn, `CC(C)(C)C(=O)NCc1ccc(C(=O)CCl)s1` displayed a melting point of 102 to 104 °C.

Take `Nc1ccc2c(c1)CC(=O)N2`: the melting point was in the range of 190 to 192 °C.

On to `CC(=O)c1ccc(NS(=O)(=O)c2ccc(C)cc2)cc1`, for which the melting point lay within 170 to 172 °C.

For the compound `CCNS(=O)(=O)c1c[nH]c(C(=O)O)c1`, the melting point lay within 183 to 185 °C.

Consider `CN1C(=O)CCc2cc(N)ccc21`, for which the melting point fell in the range of 101 to 103 °C.

`Cc1cc(NS(C)(=O)=O)ccc1Br` showed a melting point of 102 to 104 °C.

Consider `Cc1c(S(=O)(=O)Cl)sc2cccc(F)c12`, for which the melting point is 114 to 116 °C.

Take `O=C1CCC(O)(c2cccc(Cl)c2)CC1`: the melting point was 119 to 121 °C.

Take `O=Cc1cn(-c2ccccc2)nc1-c1cc2ccccc2o1`: the melting point was in the range of 176 to 178 °C.

The compound `NC(=O)NCc1ccncc1` had a melting point of 198 to 200 °C.

With `CCC(C)n1nc(N)cc1C` (centres undefined), the melting point is 54 to 56 °C.

In the case of `COc1ncccc1C(N)=S`, the melting point was in the range of 114 to 116 °C.

In turn, `Cc1ccc(-c2ccc(C(=O)O)c(F)c2)cc1C` came in with a melting point of 213 to 215 °C.

For the compound `CCS(=O)(=O)c1ccc(CN)cc1`, the melting point lay in the range of 51 to 53 °C.

For `CCOC(=O)c1c(C)n(CC)c2ccc(O)cc12`, the melting point is 183 to 185 °C.

`CC(=O)Nc1ccc(C(=O)C(C)Cl)cc1` (centres undefined) came in with a melting point of 190 to 193 °C.

Take `CSc1ccc(C(=O)CCC(=O)O)cc1`: the melting point lay within 152 to 154 °C.

As for `CCOCCS(N)(=O)=O`, the melting point is 30 to 32 °C.

For `COc1cc(C(C)N)ccc1OCCO` (centres undefined), the melting point lay within 103 to 105 °C.

In turn, `O=S(=O)(Cl)c1cc2c(cc1Br)OCCCO2` registered a melting point of 105 to 107 °C.

Compound `COc1cc(C2(C(=O)O)CCCC2)ccc1C` gave a melting point of 163 to 165 °C.

As for `Cc1cccn2cc(CC(N)=S)nc12`, the melting point was 153 to 155 °C.

`Nc1cccnc1-n1ccnc1` yielded a melting point of 215 to 217 °C.

Turning to `O=C1CCCCC(N2C(=O)c3ccccc3C2=O)C1` (centres undefined), the melting point is 119 to 121 °C.

Consider `COC(=O)N1CCc2cc(N)ccc21`, for which the melting point is 149 to 151 °C.

On to `CNS(=O)(=O)c1ccc(N)cc1C`, for which the melting point lay within 117 to 119 °C.

As to `Clc1ccc2c(c1)CCCN2`, the melting point was in the range of 37 to 39 °C.

Regarding `Cc1cc(Cl)cc2cccnc12`, the melting point is 62 to 64 °C.

`c1cc2c[nH]nc2cn1` had a melting point of 104 to 106 °C.

As to `CCc1nc(-c2ccc(C(=O)O)cc2)n[nH]1`, the melting point was in the range of 229 to 231 °C.

`CC(Cl)C(=O)NC1CCOc2ccccc21` (centres undefined) gave a melting point of 129 to 131 °C.

Turning to `CN(C)C(=S)Oc1cccc(C=O)c1`, the melting point is 65 to 67 °C.

`COc1ccc(CCN2C(=O)NC(=O)C2=O)cc1` registered a melting point of 179 to 181 °C.

`O=C(O)c1cccc(OCc2ccc(Cl)cc2)c1` returned a melting point of 171 to 173 °C.

Turning to `O=Cc1cnc2ncccn12`, the melting point was 197 to 199 °C.

Turning to `Cc1cc(O)nc(C(C)(C)C)n1`, the melting point is 177 to 179 °C.

In turn, `Nc1nc(C(=O)O)n[nH]1` returned a melting point of 178 to 182 °C.

For the compound `CCOC(=O)c1cc([N+](=O)[O-])cnc1C`, the melting point lay in the range of 45 to 52 °C.

For `NS(=O)(=O)c1cccc(I)c1`, the melting point was 148 to 150 °C.

`N=c1[nH]cc(S(=O)(=O)O)cc1[N+](=O)[O-]`: the melting point was 317 to 319 °C.

For the compound `NC(=O)C1CCN(CCc2ccc(N)cc2)CC1`, the melting point is 223 to 225 °C.

Compound `CC(=O)Cn1c(CCl)nc2sc3c(c2c1=O)CCCC3` had a melting point of 132 to 134 °C.

Turning to `Cc1sc2ncn(CCC(=O)O)c(=O)c2c1C`, the melting point lay in the range of 194 to 196 °C.

On to `N#Cc1cnn(-c2ccccc2)n1`, for which the melting point lay in the range of 90 to 92 °C.

`Fc1ccc(NCc2cccnc2)c(F)c1` came in with a melting point of 87 to 89 °C.

The compound `COC(=O)c1cccc(OC)c1O` came in with a melting point of 65 to 68 °C.

For the compound `Cc1cc(C(=O)O)c(C)n1Cc1ccc(S(N)(=O)=O)cc1`, the melting point fell in the range of 198 to 202 °C.

`Nc1ccccc1NC(=O)Cc1cccs1` came in with a melting point of 163 to 165 °C.

With `CC(C)(C)OC(=O)NC1CCN(C2CCNC2)CC1` (centres undefined), the melting point fell in the range of 108 to 110 °C.

`CC(=O)c1ccc(S(=O)(=O)N2CCCCC2C(=O)O)cc1` (centres undefined): the melting point was in the range of 132 to 134 °C.

`CN1CC(=O)N(CCCC(=O)O)C1=O` yielded a melting point of 79 to 81 °C.

For the compound `O=C(O)CCNC(=O)Cc1ccccc1`, the melting point is 109 to 111 °C.

Compound `Brc1nnc2ccccn12` showed a melting point of 109 to 111 °C.

The compound `CC(=O)CCCCCCC(=O)O` had a melting point of 38 to 40 °C.

For the compound `O=C(O)C1CSc2ccccc21` (centres undefined), the melting point was 95 to 97 °C.

On to `CC(=O)c1ccc(OC(C)C(=O)O)cc1` (centres undefined), for which the melting point lay within 158 to 161 °C.

Turning to `Oc1ccc(CNC2CCCCC2)cc1`, the melting point lay in the range of 105 to 107 °C.

In turn, `CS(=O)(=O)CCS(=O)(=O)c1ccc(N)cc1` gave a melting point of 209 to 211 °C.

The compound `Cc1ocnc1C(=O)O` came in with a melting point of 127 to 129 °C.

`CCc1[nH]n(C)c(=N)c1-c1ccc2c(c1)OCO2`: the melting point lay within 154 to 156 °C.

In the case of `CCc1sc(C(=O)NNC(=O)CCl)cc1C`, the melting point fell in the range of 160 to 162 °C.

`O=C(O)CNC(=O)CCC1CCCC1` came in with a melting point of 112 to 114 °C.

Compound `Cc1cccc(C(=O)N2CCSCC2)c1O` came in with a melting point of 88 to 90 °C.

As for `NC(=O)Nc1cccc(F)c1C(=O)O`, the melting point was 149 to 151 °C.

As to `O=Cc1c[nH]c2cc(Cl)ccc12`, the melting point lay within 209 to 211 °C.

`COc1ccc(C(C)(C)O)c(OCc2ccccc2)c1`: the melting point was in the range of 47 to 49 °C.

Compound `N#Cc1ccc2c(c1)CCCC2=O` returned a melting point of 132 to 134 °C.
